Among the data in ChEMBL document CHEMBL5726174, “Therapeutic compounds and uses thereof” (2019) are IC50 values, retold here.

This test concerns the target T1, Bromodomain-containing protein 9 (Homo sapiens, UniProt Q9H8M2).
T1 sequence (Q9H8M2 whole entry): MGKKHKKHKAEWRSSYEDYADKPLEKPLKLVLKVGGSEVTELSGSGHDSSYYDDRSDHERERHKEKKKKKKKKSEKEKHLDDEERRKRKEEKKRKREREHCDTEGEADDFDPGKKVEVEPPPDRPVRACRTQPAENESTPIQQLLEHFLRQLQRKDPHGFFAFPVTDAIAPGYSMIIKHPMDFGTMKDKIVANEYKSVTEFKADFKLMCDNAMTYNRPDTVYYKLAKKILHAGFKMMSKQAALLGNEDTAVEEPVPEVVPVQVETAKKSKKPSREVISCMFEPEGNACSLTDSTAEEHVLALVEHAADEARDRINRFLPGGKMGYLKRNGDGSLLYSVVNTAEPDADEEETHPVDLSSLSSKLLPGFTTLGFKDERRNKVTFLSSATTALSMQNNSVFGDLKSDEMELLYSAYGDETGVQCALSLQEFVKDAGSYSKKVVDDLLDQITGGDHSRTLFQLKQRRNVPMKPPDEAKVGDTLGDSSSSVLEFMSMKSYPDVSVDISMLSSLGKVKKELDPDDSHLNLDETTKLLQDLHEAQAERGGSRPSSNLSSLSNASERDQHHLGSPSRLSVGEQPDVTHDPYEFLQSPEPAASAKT
As to the kind of experiment: IC50 measurements for inhibitors using BRD9 AlphaLisa Binding Assay: His/Flag epitope tagged BRD9134-239 was cloned, expressed, and purified to homogeneity. […] After 20 minutes incubation at room temperature AlphaLisa Streptavidin Acceptor Beads (Perkin-AL125C) and AlphaLisa Nickel donor beads (Perkin AS 10 ID) were added to a final concentration of 15 ug/mL each.
`C=CCn1cc(-c2cc(OC)c(C(=O)N3CCOCC3)cc2OC)c2cc(C)[nH]c2c1=O`: the 50% inhibitory concentration (IC50) was determined as 9 nM. That is a single-digit nanomolar value. Consider `CC(C)(O)c1ccc(-c2cn(CCC3CC3)c(=O)c3[nH]ccc23)cc1`, for which the IC50 amounted to 280 nM. As for `C/C=C/Cn1cc(-c2cc(C(=O)NCC)ccc2OC)c2cc[nH]c2c1=O`, the IC50 was found to be 28 nM. Next, `CCCCn1cc(-c2cc(C#N)ccc2OC)c2cc[nH]c2c1=O`: 46 nM.
